# Measurements as given in publication PMC3283556, “The Activities of Current Antimalarial Drugs on the Life Cycle Stages of Plasmodium: A Comparative Study with Human and Rodent Parasites” (PLoS Medicine, 2012).
# “Also recorded” adds a separate entry of the source. Read-outs that look alike come from different tables or passages of the source.
# Columns and labels:
# [1] = system: P. berghei ookinete formation; assay: P. berghei ookinete development assay; format: cell-based, Plasmodium berghei; settings: for effect on ookinete formation: 10 µM; for IC50 / inhibition at 10 µM: Plasmodium berghei; for IC50: read-out: IC50 ookinete formation; for inhibition at 10 µM: read-out: Inhibition at 10 μM (ookinete, Figure 5)
# Procedure: Compounds and P. berghei gametocyte-infected blood were dispensed in a 96-well plate containing ookinete medium. After 24 h at 19°C, Giemsa-stained ookinetes were counted under the microscope (×40) as previously described,[28].
# Figure 3 The transmission-blocking potential of selected antimalarials in three bioassays that cover different phases of Plasmodium vector stage development. (A) Assays examined exflagellation (P. falciparum), ookinete formation (P. berghei), or oocyst formation (P. falciparum). All antimalarials were screened at 10 µM. (B) The biological content of the in vitro P. berghei ookinete assay spans gamete formation, fertilization, zygote development, and ookinete formation. Ookinete formation was insensitive to most of the antimalarials tested. […] (D) The in vitro P. falciparum exflagellation assay exposes mature gametocytes to antimalarials for 24 h before triggering exflagellation. […] All experiments in triplicate. (E) The in vivo P. falciparum oocyst assay differs from the P. berghei oocyst assay in that mature gametocytes were exposed to the antimalarials in culture for 24 h before feeding to mosquitoes. […] NPC1161-B, lumefantrine, halofantrine, and mefloquine +RS isomer were also active. (n = 4–61 observations; average ± standard error of the mean [SEM]).
# [2] = system: P. falciparum asexual blood stage parasites (strains NF54, D6, K1, W2, 7G8, TM90C2A, V1/S); assay: [3H]-hypoxanthine incorporation growth inhibition assay, asexual blood stage; format: cell-based, Plasmodium falciparum; settings: for IC50: Plasmodium falciparum
# Procedure: In vitro antimalarial activity was measured using the [^3H]-hypoxanthine incorporation assay with various strains of P. falciparum obtained from MR4. Results were expressed as the concentration resulting in 50% inhibition (IC50).
# The half-maximal inhibitory concentrations (IC50) were determined for each molecule (Table S2).
# Figure 2 The potencies of selected antimalarials against asexual blood stages. Main classes of antimalarials were tested against the blood stage of seven Plasmodium falciparum strains in the [^3H]hypoxanthine incorporation assay as described in Vennerstrom et al.. The strains tested here (obtained from MR4) were two drug-sensitive strains NF54 and D6 and five drug-resistant strains: K1, resistant to chloroquine (CQ) and pyrimethamine (PYR), origin Thailand, carries mutations in genes pfmdr1, pfcrt, pfdhfr, pfdhps; W2, resistant to CQ, PYR, quinine, cycloguanil, and sulfadoxine, origin Vietnam; 7G8, resistant to CQ and PYR, origin Brazil; TM90C2A, resistant to CQ, PYR, and MFQ, origin Thailand; and V1/S, resistant to CQ, PYR and cycloguanil, origin Vietnam. Results are expressed as the concentration resulting in 50% growth inhibition (IC50).Values are means of ≥3 independent experiments. (A) Endoperoxides. (B) 4-AQs. (C) 8-AQs and amino alcohols. (D) Antifolates, antibiotics, and others.
# [3] = system: P. falciparum mature gametocytes / male gamete exflagellation; assay: P. falciparum exflagellation assay; format: cell-based, Plasmodium falciparum; settings: for inhibition at 10 µM: Plasmodium falciparum
# Procedure: After 24 h, exflagellation was triggered by a temperature decrease to ∼21°C and observed 20 min later under the microscope. Highly motile exflagellation centres were recorded for ∼50–150 adjacent fields of view and reported per 10,000 RBCs.
# (A) Assays examined exflagellation (P. falciparum), ookinete formation (P. berghei), or oocyst formation (P. falciparum). All antimalarials were screened at 10 µM. (B) The biological content of the in vitro P. berghei ookinete assay spans gamete formation, fertilization, zygote development, and ookinete formation. […] (D) The in vitro P. falciparum exflagellation assay exposes mature gametocytes to antimalarials for 24 h before triggering exflagellation. […] All experiments in triplicate. (E) The in vivo P. falciparum oocyst assay differs from the P. berghei oocyst assay in that mature gametocytes were exposed to the antimalarials in culture for 24 h before feeding to mosquitoes.
# HepG2 cells = assay: Growth retardation of HepG2 cells; settings: for IC50: Homo sapiens, HepG2, read-out: IC50 HepG2; for CI (cytotoxicity index): IC50 HepG2 compared to IC50 parasite
# Procedure: (§1) 7.5×10^3 HepG2 cells in 50 µl of medium (1.5×10^5 cells/ml) were seeded in 384 well plates (Aurora 384 IQ-EB Black/Clear Plates) 20–26 h prior to the actual infection. 2 h prior to infection, 50 nl of compound in DMSO (0.1% final DMSO concentration per well) were transferred with a PinTool (GNF Systems) into the assay plates (10 µM final concentration). P. yoelii sporozoites were freshly dissected from infected A. stephensi mosquito salivary glands and filtered twice with a 40-µm strainer. The HepG2 cells were then infected with 8×10^3 sporozoites per well. After infection and 1-h incubation at 37°C, the cultures were washed, new media and compound added, and further incubated with 5-fold increased concentration of penicillin/streptomycin for 48 h at 37°C before exoerythrocytic forms (EEFs) quantification of infected cells by immunofluorescence.
# (§2) High-content imaging of infected HepG2-CD81 cells was performed as described in Meister et al.. Wells were analysed using a custom Acapella (PerkinElmer) script parameterized for this assay. In brief, images from fields inside the well were first discarded as out of focus when the intensity in the nuclear area was too low. Then hepatic cells were counted by detecting the nuclei labelled with Hoechst 33342 and parasites were segmented using the HSP70 immuno-labelling. Morphology-based (e.g., area, roundness) and intensity-based features were calculated for each object detected including the hepatocyte nuclei and the parasites. Parasitemia was set as the ratio between parasite number (Alexa fluor positive) and the hepatocyte nuclei count, determined at the same time.
# (§3) When an infected mosquito bites a host, ∼100 sporozoites may be injected into the dermis from where they rapidly invade liver cells,[33]. This infective step represents the second bottleneck during transmission and therefore another potentially vulnerable point for intervention. In the absence of a practical liver stage assay measuring the formation of P. falciparum/P. vivax liver schizonts, an equivalent assay was developed in P. yoelii and used to assess the activity of the collection of molecules against this specific stage. Specifically, P. yoelii sporozoites were dissected from the salivary glands of infected mosquitoes and were allowed to invade human hepatocarcinoma cells expressing the CD81 protein. The development of the liver schizonts was monitored by immunofluorescence staining using an HSP70 antibody specific to the parasite (Figure 4A).
# [4] = system: P. yoelii liver stage parasites (liver schizonts); assay: P. yoelii liver stage assay in HepG2 cells (EEF immunofluorescence); format: cell-based, Plasmodium yoelii; settings: for IC50: Plasmodium yoelii
# Procedure: as §1
# After washing with 1×PBS and fixation of the cells with 4% paraformaldehyde solution (EMS), membranes were permeabilised with 0.5% Triton-X-100 (Thermo Fisher Scientific) and EEFs were stained using a mouse polyclonal serum raised against the Plasmodium heat shock protein 70 (HSP70), an Alexa goat antimouse IgG, Fca-specific DyLight 649 secondary antibody (Invitrogen), and the Hoechst 33342 nucleic acid dye (Invitrogen). Stained EEFs were then quantified using the Opera Confocal High Content Screening system (PerkinElmer). Images were collected using a 20× magnification at a binning of 2 using a 365 Xeon arc lamp illumination to detect the nuclei and 635-nm laser line to excite DyLight649.
# as §2, §3
# Figure 4 Validation and results of anti-infectives tested against P. yoelii liver stage parasites. (A) Opera-generated images from a time point experiment using a 20× objective lens. P. yoelii parasites (red) were visualized using a mouse polyclonal HSP70 antibody, and the HepG2 cells (green) were stained with Hoechst 33342 nucleic acid dye. […] (B) A dose response plot with atovaquone from data generated from the Opera imaging system. The median areas of compound-treated parasites were compared to untreated DMSO controls to determine the degree of inhibition.
# [5] = system: P. berghei oocyst formation; assay: Standard membrane feed assay, P. berghei oocysts in A. stephensi; format: in vivo, Plasmodium berghei; settings: 10 µM
# Procedure: (§4) Membrane feeds were performed as described previously. Briefly, PbGFPcon-infected mouse blood was mixed with compounds, immediately placed into membrane feeders (39°C) and offered for 30 min to 80–100 overnight-starved A. stephensi (SDA 500 strain). After 7–9 d at 19°C/80%RH, mosquito midguts were dissected out. Midguts were fixed with paraformaldehyde and oocyst number was determined microscopically by semi-automated analysis as previously described.
# Supplementary file pmed.1001169.s001.tif: Figure S1 The transmission-blocking potential of selected compounds against P. berghei in standard membrane feeding assays. All antimalarials were screened at 10 µM in triplicate in independent experiments. The biological content of this assay spans gamete formation through to occyst development all within the gut of the mosquito. […] (TIF) Click here for additional data file.
# Plasmodium oocysts = assay: Oocyst development / sporogony, Plasmodium species not stated at the place; format: in vivo; settings: Plasmodium; 10 μM; box linked to oocysts; read-out: Inhibition at 10 μM (oocysts, Figure 5)
# Procedure: as §4
# Gametocyte cultures were produced according to the same protocol as the Pf exflagellation assay. Pooled gametocyte cultures were evenly divided between compounds in fresh medium and incubated at 37°C for 24 h. The parasite pellets were then resuspended in fresh RBCs and human serum treated with the compounds to a 50% haematocrit and immediately fed to mosquitoes as described above and then maintained at 27°C/60%RH for 10–12 d before dissection and counting. […]
# [6] = 10 µM, 24 h exposure of mature gametocytes
# [7] = read-out: Inhibition at 10 μM (gametocytes/exflagellation, Figure 5)
# [8] = HepG2, read-out: IC50 (liver schizont, Figure 5)
# [9] = HepG2, read-out: IC50 liver stage
# [10] = HepG2, box linked to liver schizont, read-out: IC50 (liver schizont, Figure 5)
smiles,measurement,setting,value
COc1cc(C)c2c(Oc3cccc(C(F)(F)F)c3)c(OC)cc(NC(C)CCCN)c2n1 (centres unmarked) [tafenoquine],effect on ookinete formation,[1],enhancement of ookinete formation that was not statistically significant
same,IC50,[2]; strain 7G8,~50 nM
same,IC50,[2]; strain NF54,~500 nM
C[C@@H]1C[C@@H]([C@H](O)CC2CC(=O)NC(=O)C2)C(=O)[C@@H](C)C1 [cycloheximide],effect on ookinete formation,[1],strongly inhibited ookinete formation
same,IC50,[1],0.025 µM
same,inhibition at 10 µM,[1],> 80%
same,effect on exflagellation (words),[3]; [6],inhibited exflagellation totally; also recorded: Inhibition of exflagellation
same,inhibition at 10 µM,[3]; [7],> 60%
same,effect on growth of HepG2-CD81 cells,HepG2 cells,retarded the growth of HepG2-CD81 cells
same,IC50,HepG2 cells,920 ± 290 nM
same,CI (cytotoxicity index),HepG2 cells,6.13
same,IC50,[4]; [8],< 1000 nM
same,IC50,"[4]; HepG2, read-out: IC50 Parasite",150 ± 10 nM
same,IC50,[4]; [9],< 200 nM
same,transmission-blocking effect on P. berghei oocysts (words),[5],most notable transmission-blocking activity
CCc1nc(N)nc(N)c1-c1ccc(Cl)cc1 [pyrimethamine],effect on ookinete formation,[1],strongly inhibited ookinete formation
same,inhibition at 10 µM,"[1]; 10 μM, box linked to ookinete",> 80%
same,inhibition at 10 µM,"[3]; read-out: inhibition of exflagellation, 10 µM, 24 h exposure of mature gametocytes",> 80%
same,IC50,"[2]; Erythrocyte, box linked to blood stage schizont, read-out: IC50 (erythrocyte schizont, Figure 5)",< 20 nM
same,resistance / retention of potency against resistant strains,[2]; drug-resistant strains,Resistance to pyrimethamine was verified in all drug-resistant strains
same,inhibition at 10 µM,Plasmodium oocysts,> 90%
same,IC50,[4]; [10],< 1000 nM
same,IC50,"[4]; HepG2, dose response, median parasite area (Opera), read-out: IC50 liver stage",< 10 nM
same,transmission-blocking effect on P. berghei oocysts (words),[5],most notable transmission-blocking activity
"C[C@H]1[C@@H](O)O[C@@H]2O[C@@]3(C)CC[C@H]4[C@H](C)CC[C@@H]1[C@@]24OO3 [DHA, dihydroartemisinin]",inhibition at 10 µM,Plasmodium oocysts,> 90%
same,IC50,[4]; [10],< 1000 nM
CCCCC[C@@H]1CN[C@H](C(=O)N[C@@H]([C@H]2O[C@H](SC)[C@H](O)[C@@H](O)[C@H]2O)[C@H](C)Cl)C1 [cis-mirincamycin],effect on ookinete formation,[1],enhancement of ookinete formation that was not statistically significant
C=C(NC(=O)C(=C)NC(=O)c1csc(C2=N[C@@H]3c4csc(n4)[C@H]4NC(=O)c5csc(n5)[C@H]([C@](C)(O)[C@@H](C)O)NC(=O)[C@H]5CSC(=N5)/C(=C/C)NC(=O)[C@H]([C@@H](C)O)NC(=O)c5csc(n5)[C@]3(CC2)NC(=O)[C@H](C)NC(=O)C(=C)NC(=O)[C@H](C)NC(=O)[C@H]([C@@H](C)CC)N[C@@H]2C=Cc3c([C@H](C)O)cc(nc3[C@H]2O)C(=O)O[C@@H]4C)n1)C(N)=O [thiostrepton],effect on ookinete formation,[1],strongly inhibited ookinete formation
same,IC50,[1],8 µM
same,inhibition at 10 µM,[1],> 80%
same,effect on exflagellation (words),[3]; [6],Inhibition of exflagellation
same,inhibition at 10 µM,"[3]; 24 h, read-out: inhibition of exflagellation",> 80%
same,inhibition at 10 µM,[3]; [7],> 60%
same,effect on growth of HepG2-CD81 cells,HepG2 cells,retarded the growth of HepG2-CD81 cells
same,IC50,HepG2 cells,180 ± 20 nM
same,CI (cytotoxicity index),HepG2 cells,1.0
same,IC50,[4]; [8],< 1000 nM
same,IC50,"[4]; HepG2, read-out: IC50 Parasite",180 ± 50 nM
same,IC50,[4]; [9],< 200 nM
same,potency range against liver stages,[4]; dose response,submicromolar potencies
O=CN(O)CCCP(=O)(O)O [fosmidomycin],effect on ookinete formation,[1],enhancement of ookinete formation that was not statistically significant
CC(C)(N)CNC(=O)C[C@H]1CC[C@]2(CC1)OO[C@]1(O2)C2CC3CC(C2)CC1C3 [OZ277],effect on exflagellation (words),[3]; [6],inhibited exflagellation totally
same,inhibition at 10 µM,"[3]; 10 μM, box linked to gametocytes/exflagellation, read-out: Inhibition at 10 μM (gametocytes/exflagellation, Figure 5)",> 60%
same,IC50,HepG2 cells,7400 ± 5130 nM
same,CI (cytotoxicity index),HepG2 cells,4.38
same,inhibition at 10 µM,Plasmodium oocysts,> 90%
same,IC50,"[4]; HepG2, development of P. yoelii liver schizonts following infection of HepG2 cells, read-out: IC50 Parasite",1690 ± 1220 nM
